{
  "source": "patent US20210063420A1",
  "about": "“Human Neural Organoid Platform for Detecting Drugs of Abuse Disorder Susceptibility and Therapeutic Countermeasure and Non-Addictive Pain Medication Development” (Rene Anand, priority 2019, published 2021)",
  "tested_on": "human iPSC-derived brain organoids",
  "method": "All cpm data are normalized data and the reads are a direct representation of the abundance of the RNA for each gene.\nTranscriptomic data from these neural organoids were obtained. […] Detailed data analysis using Gene Card and Pubmed data bases were performed.",
  "data": [
    {"smiles": "CN1CCCC1c1cccnc1", "note": "(stereo not drawn) [nicotine]", "values": [
      {"measurement": "expression of a set of genes for proteins involved in the development of midbrain dopaminergic neurons (VTA and SNpc)", "setting": "chronic nicotine exposure of human iPSC-derived brain organoids", "value": "increases the expression"},
      {"measurement": "change in gene expression versus 0 (control)", "setting": "exposure for 4 weeks to nicotine at 50 nanomolar, 500 nanomolar and 1 micromolar in the growth media, identified responsive genes", "value": "greater than 1.4 fold"},
      {"measurement": "expression of a subset of genes (Nurr 1, Lmx1a, Lmx1b, Neurog2, OTX2, Nolz1, NDNF)", "setting": "human neural organoids, preliminary data", "value": "upregulated"}
    ]}
  ]
}
